According to patent US20210220328A1, “PYRROLE DERIVATIVES AS ACC INHIBITORS” (Almirall, S.A., priority 2017, published 2021):

Tested on: immortalized human sebocyte cell line, SZ95
Experiment: In vitro assay of inhibition of lipid synthesis
Format: cell-based
Details: 48 h, SZ95 sebocytes
Procedure: In Vitro Assay of Inhibition of Lipid Synthesis
To evaluate the inhibition of lipid synthesis, the immortalized human sebocyte cell line, SZ95 (stablished by Zouboulis, C. C. et al J Invest Dermatol 1999; 113:1011-20), was treated with arachidonic acid (AA) in presence or absence of compound. Lipids were detected by using a lipid sensing fluorophore.
Compounds were dissolved in dimethylsulfoxide (DMSO) 100%. Then the stocks were serial diluted 1/3 in DMSO 100%, and this battery of solutions were diluted 1/10 in culture medium, to minimize the percentage of the DMSO over cells.
10 k cells were plated in 384 well microtiter plates and incubated at 37° C. and 5% CO2 in DMEM/F12 supplemented with 10% FBS, 1.25 ng/ml of rhEGF and GA-1000 before of compound and stimulus addition. After 24 h, compounds dissolved in culture media were added over cells, diluting the solutions prepared 1/40 in the final volume of the assay. Then, cells and compounds were preincubated for 30 min at 37° C. and 5% CO2. After this prior incubation, the lipid synthesis was induced by 75 μM of AA final solution, preparing a solution 10× in culture media. Finally, SZ95 treated were incubated for 48 h at 37° C. and 5% CO2.
Neutral lipids were measured using AdipoRed™, purchased from LONZA. To do that, cells were washed with PBS and incubated with a solution of AdipoRed™ (final dilution 1/80 in PBS) for 30 min at room temperature. After the staining process, the fluorescence intensity (FI) was quantified using a fluorescence plate reader (excitation 485 nm; emission 535).
Activity of compounds were calculated as % of inhibition considering the maximal fluorescence for AA-stimulated cells and the minimum fluorescence for unstimulated cells as controls.

[1] = 75 μM arachidonic acid, AdipoRed, Table 2, finer classes for compounds with IC50 less than 250 nM
[2] = lipid synthesis induced by 75 μM arachidonic acid, AdipoRed fluorescence, Table 1

Structure (SMILES) | IC50 [1] [nM] | IC50 [2] [nM]
CCCCCCCCCCCCOc1c[nH]c(C(=O)O)c1Cl [Example 80, 3-Chloro-4-(dodecyloxy)-1H-pyrrole-2-carboxylic acid] | < 50 | < 250
CCCCCCCCCCCOc1c[nH]c(C(=O)OC(C)OC(=O)OC(C)C)c1F (stereo not drawn) [Example 105, 1-((Isopropoxycarbonyl)oxy)ethyl 3-fluoro-4-(undecyloxy)-1H-pyrrole-2-carboxylate] | < 50 | < 250
CCCCCCCCCCCOc1c[nH]c(C(=O)OC(C)OC(=O)OCCOCCOCC)c1F (stereo not drawn) [Example 107, 4-Oxo-3,5,8,11-tetraoxatridecan-2-yl 3-fluoro-4-(undecyloxy)-1H-pyrrole-2-carboxylate] | < 50 | < 250
CCCCCCCCCCCCCc1c[nH]c(C(=O)OC(C)OC(=O)OCCCO)c1F (stereo not drawn) [Example 50, 1-(((3-Hydroxypropoxy)carbonyl)oxy)ethyl 3-fluoro-4-tridecyl-1H-pyrrole-2-carboxylate] | < 50 | < 250
CCCCCCCCCCCC(F)Cc1c[nH]c(C(=O)O)c1F (stereo not drawn) [Example 93, 3-Fluoro-4-(2-fluorotridecyl)-1H-pyrrole-2-carboxylic acid] | < 50 | < 250
CCCCCCCCCCCCCCCCCCc1cc(F)c(C(=O)O)[nH]1 [Example 125, 3-Fluoro-5-octadecyl-1H-pyrrole-2-carboxylic acid] |  | < 250
CCCCCCCCCCCOc1c[nH]c(C(=O)OC(C)OC(=O)OCCOC)c1F (stereo not drawn) [Example 106, 1-(((2-Methoxyethoxy)carbonyl)oxy)ethyl 3-fluoro-4-(undecyloxy)-1H-pyrrole-2-carboxylate] | < 50 | < 250
CCCCCCCCCCCCc1c[nH]c(C(=O)O)c1Cl [Example 58, 3-Chloro-4-dodecyl-1H-pyrrole-2-carboxylic acid] | < 50 | < 250
CCCCCCCCCCCCOc1c[nH]c(C(=O)OC(C)OC(=O)OC(C)C)c1Cl (stereo not drawn) [Example 85, 1-((Isopropoxycarbonyl)oxy)ethyl 3-chloro-4-(dodecyloxy)-1H-pyrrole-2-carboxylate] | < 50 | < 250
CCCCCCCCCCCCCc1c[nH]c(C(=O)OCC)c1F [Example 20, Ethyl 3-fluoro-4-tridecyl-1H-pyrrole-2-carboxylate] |  | 1000 to 5000
CCCCCCCCCCCC(C)(C)COc1c[nH]c(C(=O)O)c1F [Example 96, 4-((2,2-Dimethyltridecyl)oxy)-3-fluoro-1H-pyrrole-2-carboxylic acid] | 50 to 100 | < 250
CCCCCCCCCCCCCc1c[nH]c(C(=O)OC2CCCCC2)c1F [Example 25, Cyclohexyl 3-fluoro-4-tridecyl-1H-pyrrole-2-carboxylate] |  | 1000 to 5000
CCCCCCCCCCCCCc1c[nH]c(C(=O)O)c1Cl [Example 61, 3-Chloro-4-tridecyl-1H-pyrrole-2-carboxylic acid] | 100 to 250 | < 250
CCCCCCCCCCCCOc1c[nH]c(C(=O)OCCOCCOCC)c1Cl [Example 83, 2-(2-Ethoxyethoxy)ethyl 3-chloro-4-(dodecyloxy)-1H-pyrrole-2-carboxylate] |  | 250 to 1000
CCCCCCCCCCCCc1c[nH]c(C(=O)OCC(F)(F)F)c1F [Example 15, 2,2,2-Trifluoroethyl 4-dodecyl-3-fluoro-1H-pyrrole-2-carboxylate] | < 50 | < 250
CCCCCCCCCCCCCc1cc(Cl)c(C(=O)O)[nH]1 [Example 66, 3-Chloro-5-tridecyl-1H-pyrrole-2-carboxylic acid] | 100 to 250 | < 250
CCCCCCCCCCCCCc1c[nH]c(C(=O)OCCCCCCO)c1F [Example 36, 6-Hydroxyhexyl 3-fluoro-4-tridecyl-1H-pyrrole-2-carboxylate] | 100 to 250 | < 250

Structure (SMILES) | IC50 [1] [nM] | IC50 [2] [nM]
CCCCCCCCCCCCCCCCCCCc1cc(F)c(C(=O)O)[nH]1 [Example 126, 3-Fluoro-5-nonadecyl-1H-pyrrole-2-carboxylic acid] |  | < 250
CCCCCCCCCCC(C)(C)Cc1cc(Cl)c(C(=O)O)[nH]1 [Example 127, 3-Chloro-5-(2,2-dimethyldodecyl)-1H-pyrrole-2-carboxylic acid] | < 50 | 250 to 1000
CCOCCCCCCCCCCCCc1c[nH]c(C(=O)O)c1F [Example 92, 4-(12-Ethoxydodecyl)-3-fluoro-1H-pyrrole-2-carboxylic acid] | < 50 | < 250
CCCCCCCCCCCCOc1c[nH]c(C(=O)OCC)c1 [Example 2, Ethyl 4-(dodecyloxy)-1H-pyrrole-2-carboxylate] |  | > 5000
CCCCCCCCCCCCCc1c[nH]c(C(=O)OCCOCCOCCOCCO)c1F [Example 42, 2-(2-(2-(2-Hydroxyethoxy)ethoxy)ethoxy)ethyl 3-fluoro-4-tridecyl-1H-pyrrole-2-carboxylate] | 100 to 250 | < 250
CCCCCCCCCCCCOc1c[nH]c(C(=O)OCCO)c1 [Example 6, 2-Hydroxyethyl 4-(dodecyloxy)-1H-pyrrole-2-carboxylate] |  | 1000 to 5000
CCOCCCCCCCCCOc1c[nH]c(C(=O)O)c1Cl [Example 100, 3-Chloro-4-((9-ethoxynonyl)oxy)-1H-pyrrole-2-carboxylic acid] |  | 250 to 1000
CCCCCCCCCCCCCc1c[nH]c(C(=O)OC(C)C)c1F [Example 23, Isopropyl 3-fluoro-4-tridecyl-1H-pyrrole-2-carboxylate] |  | > 5000
CCCCCCCCCCCCCc1c[nH]c(C(=O)OCCCCCCCCO)c1F [Example 38, 8-Hydroxyoctyl 3-fluoro-4-tridecyl-1H-pyrrole-2-carboxylate] |  | 250 to 1000
CCCCCCCCCCCCCCCCCc1cc(F)c(C(=O)O)[nH]1 [Example 124, 3-Fluoro-5-heptadecyl-1H-pyrrole-2-carboxylic acid] |  | < 250
CCCCCCCCCCCCOc1c[nH]c(C(=O)OCCOC(=O)[C@@H](N)C(C)C)c1 [Example 10, 2-((L-valyl)oxy)ethyl 4-(dodecyloxy)-1H-pyrrole-2-carboxylate] |  | 1000 to 5000
CCCCCCCCCCCCCc1c[nH]c(C(=O)OCC(=O)N(C)CC(=O)OCC)c1F [Example 31, 2-((2-Ethoxy-2-oxoethyl)(methyl)amino)-2-oxoethyl 3-fluoro-4-tridecyl-1H-pyrrole-2-carboxylate] | < 50 | < 250
CCCCCCCCCCCCOc1c[nH]c(C(=O)OCCOCCOCCOCCO)c1 [Example 7, 2-(2-(2-(2-Hydroxyethoxy)ethoxy)ethoxy)ethyl 4-(dodecyloxy)-1H-pyrrole-2-carboxylate] |  | > 5000
CCCCCCCCCCCCOc1c[nH]c(C(=O)O)c1F [Example 73, 4-(Dodecyloxy)-3-fluoro-1H-pyrrole-2-carboxylic acid] | < 50 | < 250
CCCCCCCCCCCCCc1c[nH]c(C(=O)OC)c1F [Example 22, Methyl 3-fluoro-4-tridecyl-1H-pyrrole-2-carboxylate] |  | 1000 to 5000
CCCCCCCCCCCCCc1c[nH]c(C(=O)OCCCCCCCO)c1F [Example 37, 7-Hydroxyheptyl 3-fluoro-4-tridecyl-1H-pyrrole-2-carboxylate] | 100 to 250 | < 250
O=C(O)c1[nH]c(CCCCCCCCCCCCCCF)cc1F [Example 131, 3-Fluoro-5-(14-fluorotetradecyl)-1H-pyrrole-2-carboxylic acid] | 100 to 250 | < 250
